Assay results published in patent publication US9474757B2, “Methods for treating cancer using TOR kinase inhibitor combination therapy” (Signal Pharmaceuticals, LLC, priority 2013, dated 2016).
“Also recorded” adds a separate entry of the source.

What was measured:
HepG2 cells = assay: Anchorage independent growth colony formation assay, HepG2; type: cell-based, Human; details: for colony formation, % of control: HepG2, single agent, 8 days
Protocol: (§1) Cell Lines/Cells. Human cell lines HepG2 and SK-Hep-1 cells were obtained from American Type Culture Collection (ATCC; Manassas, Va.). Cells were cultured in DMEM (Dulbecco's Modified Eagle's Medium) (Mediatech; Mannasas, Va.) with 10% Premium FBS (Lonza, Walkersville, Md.).
(1) Single Agent Colony Formation Assay. Nobel Agar (1.2 grams; BD; Franklin Lakes, N.J.) was placed in a 100-mL sterile bottle. Sterile water (100 mL) was added and microwaved until the agar boiled. Equal volumes of agar and 2×RPMI medium (ECE Scientific; Doylestown, Pa.) were mixed and 300 μL were transferred to each well in a 24-well flat bottom plate (BD; Franklin Lakes, N.J.). Plates were kept at 4° C. until the agar solidified. Cultures of HepG2 and SK-Hep-1 cells were harvested and resuspended in culture medium at 3.6×10^3 cells/mL. Equal volumes of agar, 2×RPMI, and cell suspension (1:1:1) were mixed in a sterile tube and 500 μL/well were immediately transferred into the 24-well plates. Plates were kept at 4° C. until the agar solidified. Culture medium (500 μL) containing compound or DMSO was added to each well (final DMSO concentration for each treatment was 0.2%). Compound 1 was tested at final concentrations of 0.1, 0.3, 1, 3, 10 and 30 μM. Cell treatments were set up in triplicate. Cells were incubated for 8-10 days at 37° C. in a 5% CO2 atmosphere. Photographs (2× magnification) of each well were taken using a Nikon DXM1200 Digital Camera and Nikon ACT1 software and saved as a TIFF file. ImageQuant TL (GE Healthcare; Piscataway, N.J.) Colony Count Software was used to count colonies. (2) Combination Study Colony Formation Assay. Nobel Agar (1.2 grams; BD; Franklin Lakes, N.J.) was placed in a 100-mL sterile bottle. Sterile water (100 mL) was added and microwaved until the agar boiled. Equal volumes of agar and 2×RPMI medium (ECE Scientific; Doylestown, Pa.) were mixed and 300 μL were transferred to each well in a 24-well flat bottom plate (BD; Franklin Lakes, N.J.). Plates were kept at 4° C. until the agar solidified. Cultures of HepG2 and SK-Hep-1 cells were harvested and resuspended in culture medium at 3.6×10^3 cells/mL. Equal volumes of agar, 2×RPMI, and cell suspension (1:1:1) were mixed in a sterile tube and 500 µL/well were immediately transferred into the 24-well plates. Plates were kept at 4° C. until the agar solidified. Culture medium (500 μL) containing compound or DMSO was added to each well (final DMSO concentration for each treatment was 0.2%). Cells were treated with single treatment as follows: Compound 1 was tested at final concentrations of 0.1 and 0.3 μM. Cell treatments were set up in triplicate. Cells were incubated for 8-10 days at 37° C. in a 5% CO2 atmosphere. Photographs (2× magnification) of each well were taken using a Nikon DXM1200 Digital Camera and Nikon ACT1 software and saved as a TIFF file. ImageQuant TL (GE Healthcare; Piscataway, N.J.) Colony Count Software was used to count colonies.
(§2) Significance versus the DMSO control was calculated using One Way ANOVA and Dunnett's Post test or unpaired t tests using GraphPad Prism v5.01.

SK-Hep-1 cells = assay: Anchorage independent growth colony formation assay, SK-Hep-1; type: cell-based, Human
Protocol: as §1
(1) Single Agent Colony Formation Assay. Nobel Agar (1.2 grams; BD; Franklin Lakes, N.J.) was placed in a 100-mL sterile bottle. Sterile water (100 mL) was added and microwaved until the agar boiled. Equal volumes of agar and 2×RPMI medium (ECE Scientific; Doylestown, Pa.) were mixed and 300 μL were transferred to each well in a 24-well flat bottom plate (BD; Franklin Lakes, N.J.). Plates were kept at 4° C. until the agar solidified. Cultures of HepG2 and SK-Hep-1 cells were harvested and resuspended in culture medium at 3.6×10^3 cells/mL. Equal volumes of agar, 2×RPMI, and cell suspension (1:1:1) were mixed in a sterile tube and 500 μL/well were immediately transferred into the 24-well plates. Plates were kept at 4° C. until the agar solidified. Culture medium (500 μL) containing compound or DMSO was added to each well (final DMSO concentration for each treatment was 0.2%). Compound 1 was tested at final concentrations of 0.1, 0.3, 1, 3, 10 and 30 μM. Cell treatments were set up in triplicate. Cells were incubated for 8-10 days at 37° C. in a 5% CO2 atmosphere. Photographs (2× magnification) of each well were taken using a Nikon DXM1200 Digital Camera and Nikon ACT1 software and saved as a TIFF file. ImageQuant TL (GE Healthcare; Piscataway, N.J.) Colony Count Software was used to count colonies. (2) Combination Study Colony Formation Assay. Nobel Agar (1.2 grams; BD; Franklin Lakes, N.J.) was placed in a 100-mL sterile bottle. Sterile water (100 mL) was added and microwaved until the agar boiled. […]
as §2

WSU-DLCL2 xenograft = assay: DLBCL xenograft model (WSU-DLCL2); type: in vivo, SCID mice; details: for tumor volume reduction (TVR) vs vehicle: initial study, oral QD, end of 3-week dosing, Day 35
Protocol: Severe combined immunodeficiency (SCID) mice were implanted with human DLBCL cell line (WSU-DLCL2) into the flank. Treatment of compounds started between Day 11 and Day 14 after cell inoculation. Randomized groups of mice (n=9 to 10/group) were treated with the single agents (Compound 1, Compound A or Compound AA) or the combination of Compound 1/Compound A, Compound A/Compound AA, or Compound 1/Compound AA. Compounds were administered orally on a once daily (Compound 1 and Compound A) or twice daily […] schedule for 21 days. The positive control consisted of CHOP therapy (combination of cyclophosphamide, doxorubicin, vincristine and prednisone). Compound 1 and Compound A were formulated in CMC-Tween (carboxymethylcellulose/Tween 80/deionized water). Compound AA was suspended in DSP (dimethylsulphoxide/solutol/phosphate buffered saline).
Initial studies were conducted in order to determine the antitumor activity of Compound 1 and to identify a dose level for the combination studies. In the WSU-DLCL2 xenograft model, Compound 1 inhibited tumor growth in a dose-dependent fashion. […] In a subsequent combination study, Compound 1 was dosed at 10 mg/kg, once daily (QD). Compound A and Compound AA were dosed at 30 mg/kg (QD) and 50 mg/kg (BID), respectively.

OCI-Ly10 xenograft = assay: OCI-Ly10 DLBCL xenograft model; type: in vivo, SCID mice; details: extended schedule qd×28/4/21: Compound A 10 mg/kg, Compound 1 3 mg/kg
Excerpt: OCI-Ly10 cells are derived from a diffuse-large B-cell lymphoma, a type of non-Hodgkins lymphoma. Female SCID mice (Fox Chase SCID®, CB 17/Icr-Prkdcscid, Charles River), characterized by severe combined T and B cell immunodeficiency, were 10 weeks old, with body weights ranging from 15.4 to 24.2 g, on Day 1 of this study. In brief, female CB.17 SCID mice were inoculated with 5×10^6 OCI-Ly10 cells subcutaneously, and tumors were allowed to grow to approximately 100-150 mm^3 before stratification into treatment groups, so as to yield groups with comparably sized tumors prior to treatment. In addition to the efficacy treatment groups, some mice were stratified into short-term treatment groups and their tumors were collected 4 hours post final dosing in groups that received saline, 30 mg/kg or 10 mg/kg Compound A, or 3 mg/kg Compound 1 once daily for seven days, starting on day 27. Frozen, and fixed paraffin-embedded, samples were analyzed. In the efficacy arm of the study, dosing began on Day 1 (D1) in 12 groups of mice (n=10/group) with established subcutaneous tumors (mean volumes, 120-129 mm^3). Compound A (at two dose levels) and Compound 1 (at one dose level) were each administered once daily for 28 days (qd×28). Control mice received the vehicle, 5% DMSO/15% Solutol® HS15/80% PBS, p.o. b.i.d.×28. On D29 a 21-day dosing extension, from day 33 to day 53, in the control and five test groups was implemented, resulting in b.i.d.×28/4/21 or qd×28/4/21 schedules for these groups.
Tumors were calipered twice weekly, and each mouse in the efficacy study was euthanized when its tumor reached the 1000 mm^3 volume endpoint, or on day 61, whichever came first. Efficacy was determined from tumor growth delay (TGD), defined as the increase in the median time-to-endpoint (TTE) in drug-treated (T) versus vehicle-treated (C) mice, and from the significance of survival extension.

[1] = system: doxorubicin-resistant Ramos cell xenografts; assay: CIVO local injection, parental and doxorubicin-resistant RAMOS xenograft, cleaved caspase 3; type: in vivo, Nu/Nu mice; details: tumors harvested 24 hour post injection
Protocol: Anesthetized Nu/Nu mice harboring xenografted tumors were injected with multiple individual compounds or compound combinations, simultaneously, each into a distinct location of the tumor. Precise, controlled delivery of the compounds was evaluated for spatially defined and cellular changes around sites of tumor microinjection across xenograft models of DLBCL. Tumors were resected and injection quality was assessed by IVIS imaging of co-injected near-infrared tracking dye. Sections from representative regions down the z-axis of the tumor were prepared for staining with biomarkers of pathway inhibition and tumor response. Samples were then batch scanned in a Caliper Pannoramic slide scanner, resulting in high resolution images compatible with single cell analysis and subsequent data quantification via Presage's CIVO™ analyzer custom image analysis platform (for technology description, see R. Klinghoffer et al, AACR, 2014 and Presagebio.com).
Mice with parental or doxorubicin-resistant Ramos cell xenografts were injected locally with vehicle (4 μL), Compound 2 (13 μg in 4 μL injected), Compound 1 (39 μg in 4 μL injected), or Vincristine (1.47 μg in 4 μL (400 μM) injected). Tumors were harvested 24 hour post injection.

[2] = combination study, single agents or in combination

CO[C@H]1CC[C@H](N2C(=O)CNc3ncc(-c4ccc(C(C)(C)O)nc4)nc32)CC1 [Compound 1, 7-(6-(2-hydroxypropan-2-yl)pyridin-3-yl)-1-((1r,4r)-4-methoxycyclohexyl)-3,4-dihydropyrazino-[2,3-b]pyrazin-2(1H)-one]
anti-colony forming activity (HepG2 cells; HepG2, concentrations of 0.1 to 100 μM): dose-dependent and significant anti-colony forming activity | colony formation, % of control (HepG2 cells; 0.1 μM): 74 % of control | colony formation, % of control (HepG2 cells; 0.3 μM): 57 % of control | colony formation, % of control (HepG2 cells; 1 μM): 33 % of control | colony formation, % of control (HepG2 cells; 3 μM): 24 % of control | colony formation, % of control (HepG2 cells; 10 μM): 16 % of control | colony formation, % of control (HepG2 cells; 30 μM): 11 % of control | anti-colony forming activity (SK-Hep-1 cells; SK-Hep-1, concentrations of 0.1 to 100 μM): dose-dependent and significant anti-colony forming activity | inhibition of colony formation (SK-Hep-1 cells; SK-Hep-1, single agent, 3 μM and higher): 100% | colony formation, % of control (SK-Hep-1 cells; SK-Hep-1, single agent, 0.3-30 μM, 8-10 days): 0-45 % of control | decrease in tumor volume (TVR) vs vehicle (WSU-DLCL2 xenograft; combination study, Day 34, Compound 1 10 mg/kg QD, Compound A 30 mg/kg QD, Compound AA 50 mg/kg BID, oral): 29% | body weight loss (WSU-DLCL2 xenograft; [2]): No significant body weight loss | tumor volume reduction (TVR) vs vehicle (WSU-DLCL2 xenograft; 1 mg/kg): ~22% | tumor volume reduction (TVR) vs vehicle (WSU-DLCL2 xenograft; 3 mg/kg): ~28% | body weight loss (WSU-DLCL2 xenograft; initial study, 1, 3 and 10 mg/kg): No significant body weight loss | tumor growth delay (TGD), % (OCI-Ly10 xenograft): 73% | PRs / regressions (OCI-Ly10 xenograft; alone or combined): one | survivors (n=10/group) (OCI-Ly10 xenograft; alone or combined): five | tumor growth delay (TGD) (OCI-Ly10 xenograft; alone or combined): 23.8 days

CCN1C(=O)CNc2ncc(-c3ccc(-c4nc[nH]n4)nc3C)nc21 [Compound 2, 1-ethyl-7-(2-methyl-6-(1H-1,2,4-triazol-3-yl)pyridin-3-yl)-3,4-dihydropyrazino[2,3-b]pyrazin-2(1H)-one]
sensitivity of doxorubicin resistant vs parental Ramos cells (cleaved caspase 3 vs distance from injection site) [1]: increased sensitivity; also recorded: more sensitive

C=CC(=O)Nc1cccc(Nc2nc(Nc3ccc(OCCOC)cc3)ncc2F)c1 [Compound AA, N-(3-(5-fluoro-2-(4-(2-methoxyethoxy)phenylamino)pyrimidin-4-ylamino)phenyl)acrylamide]
antitumor activity (WSU-DLCL2 xenograft; combination study, Day 34, Compound 1 10 mg/kg QD, Compound A 30 mg/kg QD, Compound AA 50 mg/kg BID, combinations compared with single agent): No significant antitumor activity; also recorded: inactive | body weight loss (WSU-DLCL2 xenograft; [2]): No significant body weight loss

CC[C@]1(O)C[C@H]2CN(CCc3c([nH]c4ccccc34)[C@@](C(=O)OC)(c3cc4c(cc3OC)N(C=O)[C@H]3[C@@](O)(C(=O)OC)[C@H](OC(C)=O)[C@]5(CC)C=CCN6CC[C@]43[C@@H]65)C2)C1 [Vincristine, reference compound]
sensitivity of doxorubicin resistant vs parental Ramos cells (cleaved caspase 3 vs distance from injection site) [1]: resistant
